The values that follow come from patent US12678446B2 (PFIZER INC., priority 2020, dated 2026).

One data set in a line: cell toxicity CC50. The class given is cell-based. Particulars: human; Hep-G2 cells; mean of at least two experiments; read-out: Cell Cytotoxicity CC50.
The test system of data set [1] is RSV (RSV A2 ECACC, 0709161v). Description: RSV plaque reduction assay. The class given is cell-based, respiratory syncytial virus. Particulars: human respiratory syncytial virus, HepG2, read-out: RSV A2 Plaque EC50, RSV A2 in Hep-G2 cells; mean of at least two experiments unless noted (n = 1). How it is done: Compounds w ere subjected to RSV plaque reduction assays according to the following protocol.
Hep-G2 cells (ECACC, 85011430) were passaged in flasks and seeded in 24-well plates in DMEM containing antibiotics and supplemented with 10% FBS. During inoculation and subsequent incubation, cells were cultured in DMEM containing 2% FBS. 100 plaque forming unit/well of RSV (RSV A2 ECACC, 0709161v) was mixed with eight serial dilutions of compound. Subsequently, 100 μL of the virus/compound mixtures was added to confluent Hep-G2 cell monolayers. The cells and virus/compound mixtures were incubated at 37° C. in a humidified 5% CO2 incubator for 2 h prior to removal of the inoculum and addition of 1 mL of overlay (DMEM containing 2% FBS and 0.8% CMC) containing compound dilutions. The cells and were incubated at 37° C. in a humidified 5% CO2 incubator for 2 days.
Cells were washed with PBS before adding 75/25% v/v EtOH MeOH, for 3 min. Fixative was removed and plates were washed with PBS. A pre-titrated amount of the primary antibody was added in 200 μL PBS/2% milk powder, and plates incubated for 90 min at 37° C. The plates were washed 3 times with PBS/0.05% Tween20 before addition of rabbit anti-goat horse radish peroxidase in 200 μL PBS/2% milk powder, and incubated for 1 h at 37° C. Following three wash steps with PBS/0.05% Tween20, 200 μL ready-to-use TrueBlue was added and plates were incubated at rt for 10-15 min before washing with water. After removal of water, plates were air-dried in the dark.
Plates were scanned and analysed using the Immunospot S6 Macro analyser, which is equipped with BioSpot analysis software for counting immunostained plaques (virospots). Plaque counts were used to calculate % infection relative to the mean of the plaque count in the virus control wells for RSV. […] Unless otherwise noted, plaque EC50 and cell toxicity CC50 values are a mean of at least two experiments and figures are rounded to whole units.
On the technique in general: In a plaque reduction assay, fewer plaques than in the control indicate reduced infectivity or spread.

What is called CC50 is the concentration giving 50% cytotoxicity. Usually EC50 stands for the concentration needed to bring the measured effect to its halfway point. Turning to `O=C(N[C@H]1N=C(c2ccccc2)c2cccc(F)c2NC1=O)c1c(-c2ccc(F)cc2F)nn2c1OCCC2` [Example 2, 2-(2,4-Difluorophenyl)-N-[(3S)-9-fluoro-2-oxo-5-phenyl-1,3-dihydro-1,4-benzodiazepin-3-yl]-6,7-dihydro-5H-pyrazolo[5,1-b][1,3]oxazine-3-carobxamide], in the data set “cell toxicity CC50”, the CC50 was > 25000 nM. The EC50 in data set [1] was found to be 22 nM.

As to `CC(O)Cc1ccc(-c2nn3c(c2C(=O)N[C@H]2N=C(c4ccccc4)c4ccccc4NC2=O)O[C@H](C)CC3)cn1` (stereo partly drawn) [Example 50, (5R)-2-[6-(2-Hydroxypropyl)pyridin-3-yl]-5-methyl-N-[(3S)-2-oxo-5-phenyl-1,3-dihydro-1,4-benzodiazepin-3-yl]-6,7-dihydro-5H-pyrazolo[5,1-b][1,3]oxazine-3-carboxamide], in the data set “cell toxicity CC50”, the half-maximal cytotoxic concentration (CC50) is > 25000 nM. The EC50 in data set [1] was determined as 429 nM.

In the case of `C[C@@H]1CCn2nc(-c3cc(S(C)(=O)=O)ccc3F)c(C(=O)N[C@H]3N=C(c4ccccc4)c4cccc(F)c4NC3=O)c2O1` [Example 198, (5R)-2-(2-Fluoro-5-methylsulfonylphenyl)-N-[(3S)-9-fluoro-2-oxo-5-phenyl-1,3-dihydro-1,4-benzodiazepin-3-yl]-5-methyl-6,7-dihydro-5H-pyrazolo[5,1-b][1,3]oxazine-3-carboxamide], the 50% cytotoxic concentration (CC50) in “cell toxicity CC50” was > 25000 nM. The half-maximal effective concentration (EC50) in data set [1] was determined as 35 nM.

`O=C(N[C@H]1N=C(c2ccccc2)c2cccc(F)c2NC1=O)c1c(-c2cccnc2)nn2c1OCCC2` [Example 17, N-[(3S)-9-Fluoro-2-oxo-5-phenyl-1,3-dihydro-1,4-benzodiazepin-3-yl]-2-pyridin-3-yl-6,7-dihydro-5H-pyrazolo[5,1-b][1,3]oxazine-3-carboxamide]: the CC50 in the data set “cell toxicity CC50” is > 25000 nM. Also, the EC50 in data set [1] turned out to be 180 nM.

Turning to `CN(C)CC1COc2c(C(=O)N[C@H]3N=C(c4ccccc4)c4cccc(F)c4NC3=O)c(-c3ccccc3F)nn2C1` (stereo in doubt) [Example 171-1, (6R*)-6-[(Dimethylamino)methyl]-N-[(3S)-9-fluoro-2-oxo-5-phenyl-1,3-dihydro-1,4-benzodiazepin-3-yl]-2-(2-fluorophenyl)-6,7-dihydro-5H-pyrazolo[5,1-b][1,3]oxazine-3-carboxamide], in the data set “cell toxicity CC50”, the CC50 is > 25000 nM. Further, the EC50 in data set [1] stood at 53 nM.

In the case of `O=C(N[C@H]1N=C(c2ccccc2)c2ccccc2NC1=O)c1c(-c2cnn(CC(F)(F)F)c2)nn2c1OCCC2` [Example 151, N-[(3S)-2-oxo-5-phenyl-1,3-dihydro-1,4-benzodiazepin-3-yl]-2-[1-(2,2,2-trifluoroethyl)pyrazol-4-yl]-6,7-dihydro-5H-pyrazolo[5,1-b][1,3]oxazine-3-carboxamide], the CC50 in the data set “cell toxicity CC50” is > 25000 nM. The EC50 in data set [1] was found to be 108 nM.

Consider `C[C@@H]1CCn2nc(-c3cnn(CC(F)(F)F)c3)c(C(=O)N[C@H]3N=C(c4ccccc4)c4cccc(F)c4NC3=O)c2O1` [Example 118, (5R)-N-[(3S)-9-fluoro-2-oxo-5-phenyl-1,3-dihydro-1,4-benzodiazepin-3-yl]-5-methyl-2-[1-(2,2,2-trifluoroethyl)pyrazol-4-yl]-6,7-dihydro-5H-pyrazolo[5,1-b][1,3]oxazine-3-carboxamide], for which the CC50 in the data set “cell toxicity CC50” is > 25000 nM. The EC50 in data set [1] turned out to be 43 nM.

On to `C[C@@H]1CCn2nc(-c3ccc(CO)nc3)c(C(=O)N[C@H]3N=C(c4ccccc4)c4cccc(F)c4NC3=O)c2O1` [Example 155, (5R)-N-[(3S)-9-fluoro-2-oxo-5-phenyl-1,3-dihydro-1,4-benzodiazepin-3-yl]-2-[6-(hydroxymethyl)pyri-din-3-yl]-5-methyl-6,7-dihydro-5H-pyrazolo[5,1-b][1,3]oxazine-3-carboxamide], for which the CC50 in “cell toxicity CC50” was > 25000 nM. In addition, the EC50 in data set [1] was found to be 219 nM.

Regarding `CCc1ccc(-c2nn3c(c2C(=O)N[C@H]2N=C(c4ccccc4)c4cccc(F)c4NC2=O)OCC(CO)C3)cn1` (stereo partly drawn) [Example 133, 2-(6-Ethylpyridin-3-yl)-N-[(3S)-9-fluoro-2-oxo-5-phenyl-1,3-dihydro-1,4-benzodiazepin-3-yl]-6-(hydroxymethyl)-6,7-dihydro-5H-pyrazolo[5,1-b][1,3]oxazine-3-carboxamide], in “cell toxicity CC50”, the CC50 is > 25000 nM. Besides, the EC50 in data set [1] was 220 nM.

As for `CN(C)CC1COc2c(C(=O)N[C@H]3N=C(c4ccccc4)c4cccc(F)c4NC3=O)c(-c3ccccc3F)nn2C1` (single isomer, unassigned) [Example 171-2, (6S*)-6-[(Dimethylamino)methyl]-N-[(3S)-9-fluoro-2-oxo-5-phenyl-1,3-dihydro-1,4-benzodiazepin-3-yl]-2-(2-fluorophenyl)-6,7-dihydro-5H-pyrazolo[5,1-b][1,3]oxazine-3-carboxamide], the CC50 in the data set “cell toxicity CC50” was > 25000 nM. In data set [1], the EC50 stood at 56 nM.

For the molecule `Cc1cnc(F)c(-c2nn3c(c2C(=O)N[C@H]2N=C(c4ccccc4)c4ccccc4NC2=O)OCCC3)c1` [Example 42, 2-(2-Fluoro-5-methylpyridin-3-yl)-N-[(3S)-2-oxo-5-phenyl-1,3-dihydro-1,4-benzodiazepin-3-yl]-6,7-dihydro-5H-pyrazolo[5,1-b][1,3]oxazine-3-carboxamide], the CC50 in the data set “cell toxicity CC50” was > 25000 nM. Besides, the EC50 in data set [1] was 124 nM.

As to `CC(C)Nc1ccc(-c2nn3c(c2C(=O)N[C@H]2N=C(c4ccccc4)c4cccc(F)c4NC2=O)OCCC3)c(F)n1` [Example 4, N-[(3S)-9-Fluoro-2-oxo-5-phenyl-1,3-dihydro-1,4-benzodiazepin-3-yl]-2-[2-fluoro-6-(propan-2-ylamino)pyridin-3-yl]-6,7-dihydro-5H-pyrazolo[5,1-b][1,3]oxazine-3-carboxamide], the 50% cytotoxic concentration (CC50) in the data set “cell toxicity CC50” is > 25000 nM. The half-maximal effective concentration (EC50) in data set [1] came out at 29 nM.

Take `C[C@@H]1CCn2nc(-c3ccsc3)c(C(=O)N[C@H]3N=C(c4ccccc4)c4ccccc4NC3=O)c2O1` [Example 64, (5R)-5-Methyl-N-[(3S)-2-oxo-5-phenyl-1,3-dihydro-1,4-benzodiazepin-3-yl]-2-(3-thienyl)-6,7-dihydro-5H-pyrazolo[5,1-b][1,3]oxazine-3-carboxamide]: the CC50 in “cell toxicity CC50” was > 25000 nM. The EC50 in data set [1] came to 133 nM.

Regarding `O=C(N[C@H]1N=C(c2ccccc2)c2cccc(F)c2NC1=O)c1c(C2CC2)nn2c1OCCC2` [Example 45, 2-Cyclopropyl-N-[(3S)-9-fluoro-2-oxo-5-phenyl-1,3-dihydro-1,4-benzodiazepin-3-yl]-6,7-dihydro-5H-pyrazolo[5,1-b][1,3]oxazine-3-carboxamide], in “cell toxicity CC50”, the CC50 was > 25000 nM. Moreover, in data set [1], the EC50 was found to be 301 nM.

Turning to `O=C(N[C@H]1N=C(c2ccccc2)c2cccc(F)c2NC1=O)c1c(-c2ccccc2F)nn2c1S(=O)(=O)CCC2` [Example 33, 2-(2-Fluorophenyl)-N-[(3S)-9-fluoro-2-oxo-5-phenyl-2,3-dihydro-1H-1,4-benzodiazepin-3-yl]-4,4-dioxo-5H,6H,7H-4λ^6-pyrazolo[3,2-b][1,3]thiazine-3-carboxamide], in “cell toxicity CC50”, the CC50 was > 25000 nM. Further, in data set [1], the EC50 came to 474 nM.

Regarding `O=C(N[C@H]1N=C(c2ccccc2)c2cccc(F)c2NC1=O)c1c(-c2ccccc2F)nn2c1OC1(CC2)CC1` [Example 7, N-[(3S)-9-fluoro-2-oxo-5-phenyl-1,3-dihydro-1,4-benzodiazepin-3-yl]-2-(2-fluorophenyl)spiro[6,7-dihydropyrazolo[5,1-b][1,3]oxazine-5,1′-cyclopropane]-3-carboxamide], the CC50 in “cell toxicity CC50” was > 25000 nM. In addition, the EC50 in data set [1] was found to be 32 nM.

As to `CCCC1COc2c(C(=O)N[C@H]3N=C(c4ccccc4)c4cccc(F)c4NC3=O)c(-c3ccccc3F)nn2C1` (stereo partly drawn) [Example 14, N-[(3S)-9-fluoro-2-oxo-5-phenyl-2,3-dihydro-1H-1,4-benzodiazepin-3-yl]-2-(2-fluorophenyl)-6-propyl-5H,6H,7H-pyrazolo[3,2-b][1,3]oxazine-3-carboxamide], the CC50 in the data set “cell toxicity CC50” was > 25000 nM. Moreover, in data set [1], the 50% effective concentration (EC50) was found to be 36 nM.

`C[C@@H]1CCn2nc(-c3cn[nH]c3)c(C(=O)N[C@H]3N=C(c4ccccc4)c4cccc(F)c4NC3=O)c2O1` [Example 159, (5R)-N-[(3S)-9-fluoro-2-oxo-5-phenyl-1,3-dihydro-1,4-benzodiazepin-3-yl]-5-methyl-2-(1H-pyrazol-4-yl)-6,7-dihydro-5H-pyrazolo[5,1-b][1,3]oxazine-3-carboxamide]: in the data set “cell toxicity CC50”, the CC50 was > 25000 nM. The concentration giving a half-maximal response (EC50) in data set [1] was determined as 395 nM.

Regarding `COCCn1cc(-c2nn3c(c2C(=O)N[C@H]2N=C(c4ccccc4)c4cccc(F)c4NC2=O)O[C@H](C)CC3)cn1` [Example 119, (5R)-N-[(3S)-9-fluoro-2-oxo-5-phenyl-1,3-dihydro-1,4-benzodiazepin-3-yl]-2-[1-(2-methoxyethyl)pyrazol-4-yl]-5-methyl-6,7-dihydro-5H-pyrazolo[5,1-b][1,3]oxazine-3-carboxamide], the CC50 in “cell toxicity CC50” is > 25000 nM. In addition, in data set [1], the EC50 was 69 nM.
